Molecular target: T1, Beta-secretase 1 (Homo sapiens, UniProt P56817)
Assay: Inhibition of BACE1
Conditions: not given

T1 sequence (P56817 whole entry): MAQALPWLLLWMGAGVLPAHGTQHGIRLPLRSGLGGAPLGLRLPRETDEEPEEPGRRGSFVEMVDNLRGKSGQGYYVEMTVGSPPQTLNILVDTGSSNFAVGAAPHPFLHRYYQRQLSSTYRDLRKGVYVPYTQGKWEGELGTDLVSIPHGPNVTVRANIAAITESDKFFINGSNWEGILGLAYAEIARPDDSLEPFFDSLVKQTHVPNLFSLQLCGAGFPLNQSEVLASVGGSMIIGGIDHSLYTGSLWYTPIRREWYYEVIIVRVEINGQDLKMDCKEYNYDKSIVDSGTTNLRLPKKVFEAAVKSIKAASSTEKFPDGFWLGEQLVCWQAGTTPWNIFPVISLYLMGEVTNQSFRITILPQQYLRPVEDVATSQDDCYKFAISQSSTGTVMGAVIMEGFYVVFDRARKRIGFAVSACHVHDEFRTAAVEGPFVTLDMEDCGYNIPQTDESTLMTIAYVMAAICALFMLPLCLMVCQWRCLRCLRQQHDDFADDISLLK

Row | Compound | IC50 [µM]
1 | CCCNC[C@@H](O)[C@H](Cc1ccccc1)NC(=O)c1cc2c3c(cn(CC)c3c1)CCS(=O)(=O)N2C | 0.008
2 | CCn1cc2c3c(cc(C(=O)N[C@@H](Cc4ccccc4)[C@H](O)CNC4CCOCC4)cc31)N(C)S(=O)(=O)CC2 | 0.005
3 | CCc1cn2c3c(cc(C(=O)N[C@@H](Cc4ccccc4)[C@H](O)CNCC4CCOCC4)cc13)OS(=O)(=O)CC2 | 0.086
4 | CCc1cn2c3c(cc(C(=O)N[C@@H](Cc4ccccc4)[C@H](O)CNCCC(F)(F)F)cc13)N(C)S(=O)(=O)CC2 | 0.007
5 | CCn1cc2c3c(cc(C(=O)N[C@@H](Cc4ccccc4)[C@H](O)CNc4ccccc4)cc31)N(C)S(=O)(=O)CC2 | 0.005
6 | CCc1cn2c3c(cc(C(=O)N[C@@H](Cc4ccccc4)[C@H](O)CNC4CCOCC4)cc13)N(C)S(=O)(=O)CC2 | 0.009
7 | C#CCNC[C@@H](O)[C@H](Cc1ccccc1)NC(=O)c1cc2c3c(c1)c(CC)cn3CCS(=O)(=O)N2C | 0.073
8 | CCn1cc2c3c(cc(C(=O)N[C@@H](Cc4ccccc4)[C@H](O)CNCCF)cc31)N(C)S(=O)(=O)CC2 | 0.04
9 | CCc1cn2c3c(cc(C(=O)N[C@@H](Cc4ccccc4)[C@H](O)CNCCF)cc13)N(C)S(=O)(=O)CC2 | 0.05
10 | CCn1cc2c3c(cc(C(=O)N[C@@H](Cc4ccccc4)[C@H](O)CNCC(F)(F)C(F)(F)F)cc31)N(C)S(=O)(=O)CC2 | 0.032

Molecular target: T1, Beta-secretase 1
Assay: Inhibition of BACE1 in human SHSY5Y cells expressing wild type APP assessed as inhibition of intracellular amyloid beta-40 secretion
Format: cell-based, SH-SY5Y
Conditions: not given

Row | Compound | IC50 [µM]
11 | CCCNC[C@@H](O)[C@H](Cc1ccccc1)NC(=O)c1cc2c3c(cn(CC)c3c1)CCS(=O)(=O)N2C | 0.029
12 | CCn1cc2c3c(cc(C(=O)N[C@@H](Cc4ccccc4)C(=O)CNC4CCOCC4)cc31)N(C)S(=O)(=O)CC2 | 0.048
13 | CCn1cc2c3c(cc(C(=O)N[C@@H](Cc4ccccc4)[C@H](O)CNC4CCOCC4)cc31)N(C)S(=O)(=O)CC2 | 0.027
14 | CCc1cn2c3c(cc(C(=O)N[C@@H](Cc4ccccc4)[C@H](O)CNCCC(F)(F)F)cc13)N(C)S(=O)(=O)CC2 | 0.008
15 | CCn1cc2c3c(cc(C(=O)N[C@@H](Cc4ccccc4)[C@H](O)CNc4ccccc4)cc31)N(C)S(=O)(=O)CC2 | 0.739
16 | CCc1cn2c3c(cc(C(=O)N[C@@H](Cc4ccccc4)[C@H](O)CNC4CCOCC4)cc13)N(C)S(=O)(=O)CC2 | 0.09
17 | C#CCNC[C@@H](O)[C@H](Cc1ccccc1)NC(=O)c1cc2c3c(c1)c(CC)cn3CCS(=O)(=O)N2C | 0.118
18 | CCn1cc2c3c(cc(C(=O)N[C@@H](Cc4ccccc4)[C@H](O)CNCCF)cc31)N(C)S(=O)(=O)CC2 | 0.245
19 | CCc1cn2c3c(cc(C(=O)N[C@@H](Cc4ccccc4)[C@H](O)CNCCF)cc13)N(C)S(=O)(=O)CC2 | 0.209
20 | CCn1cc2c3c(cc(C(=O)N[C@@H](Cc4ccccc4)[C@H](O)CNCC(F)(F)C(F)(F)F)cc31)N(C)S(=O)(=O)CC2 | 4.43

Molecular target: Cathepsin D (Homo sapiens, UniProt P07339)
Sequence (P07339 65-162 limits assumed): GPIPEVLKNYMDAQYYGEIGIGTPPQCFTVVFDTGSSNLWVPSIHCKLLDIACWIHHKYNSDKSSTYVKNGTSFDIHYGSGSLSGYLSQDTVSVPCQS
Sequence (P07339 169-412 limits assumed): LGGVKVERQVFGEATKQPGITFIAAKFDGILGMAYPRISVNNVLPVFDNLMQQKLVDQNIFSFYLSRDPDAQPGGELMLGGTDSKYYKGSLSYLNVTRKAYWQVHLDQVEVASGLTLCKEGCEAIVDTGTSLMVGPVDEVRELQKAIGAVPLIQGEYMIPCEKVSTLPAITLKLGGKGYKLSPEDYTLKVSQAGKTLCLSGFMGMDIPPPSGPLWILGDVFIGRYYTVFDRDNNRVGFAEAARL
Assay: Inhibition of cathepsin-D
Conditions: not given

Row | Compound | IC50 [µM]
21 | CCn1cc2c3c(cc(C(=O)N[C@@H](Cc4ccccc4)[C@H](O)CNC4CC4)cc31)N(C)S(=O)(=O)CC2 | 6.79
22 | CCn1cc2c3c(cc(C(=O)N[C@@H](Cc4ccccc4)[C@H](O)CNC4CCOCC4)cc31)N(C)S(=O)(=O)CC2 | 2.11
23 | CCc1cn2c3c(cc(C(=O)N[C@@H](Cc4ccccc4)[C@H](O)CNCC4CCOCC4)cc13)OS(=O)(=O)CC2 | 0.13
24 | CCc1cn2c3c(cc(C(=O)N[C@@H](Cc4ccccc4)[C@H](O)CNCCC(F)(F)F)cc13)N(C)S(=O)(=O)CC2 | 0.89
25 | CCc1cn2c3c(cc(C(=O)N[C@@H](Cc4ccccc4)[C@H](O)CNC4CCOCC4)cc13)N(C)S(=O)(=O)CC2 | 0.06
26 | C#CCNC[C@@H](O)[C@H](Cc1ccccc1)NC(=O)c1cc2c3c(c1)c(CC)cn3CCS(=O)(=O)N2C | 75.5

Molecular target: T2, Beta-secretase 2 (Homo sapiens, UniProt Q9Y5Z0)
T2 sequence (Q9Y5Z0 whole entry): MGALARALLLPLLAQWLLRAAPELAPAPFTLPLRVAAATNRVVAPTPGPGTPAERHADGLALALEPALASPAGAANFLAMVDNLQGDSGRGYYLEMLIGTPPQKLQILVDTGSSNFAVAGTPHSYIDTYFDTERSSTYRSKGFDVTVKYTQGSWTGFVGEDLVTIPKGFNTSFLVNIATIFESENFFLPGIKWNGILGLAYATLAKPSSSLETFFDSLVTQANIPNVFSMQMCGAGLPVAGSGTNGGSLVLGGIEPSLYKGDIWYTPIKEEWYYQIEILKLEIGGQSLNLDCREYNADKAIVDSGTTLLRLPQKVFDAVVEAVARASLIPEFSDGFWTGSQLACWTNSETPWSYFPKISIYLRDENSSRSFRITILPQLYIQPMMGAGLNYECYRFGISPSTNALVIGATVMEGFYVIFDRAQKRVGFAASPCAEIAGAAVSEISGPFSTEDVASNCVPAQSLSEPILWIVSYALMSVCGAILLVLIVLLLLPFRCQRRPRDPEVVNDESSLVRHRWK
Assay: Inhibition of BACE2
Conditions: not given

Row | Compound | IC50 [µM]
27 | CCn1cc2c3c(cc(C(=O)N[C@@H](Cc4ccccc4)[C@H](O)CNC4CC4)cc31)N(C)S(=O)(=O)CC2 | 0.37
28 | CCn1cc2c3c(cc(C(=O)N[C@@H](Cc4ccccc4)[C@H](O)CNC4CCOCC4)cc31)N(C)S(=O)(=O)CC2 | 0.59
29 | CCc1cn2c3c(cc(C(=O)N[C@@H](Cc4ccccc4)[C@H](O)CNCC4CCOCC4)cc13)OS(=O)(=O)CC2 | 0.45
30 | CCc1cn2c3c(cc(C(=O)N[C@@H](Cc4ccccc4)[C@H](O)CNCCC(F)(F)F)cc13)N(C)S(=O)(=O)CC2 | 0.028
31 | CCc1cn2c3c(cc(C(=O)N[C@@H](Cc4ccccc4)[C@H](O)CNC4CCOCC4)cc13)N(C)S(=O)(=O)CC2 | 0.21
32 | C#CCNC[C@@H](O)[C@H](Cc1ccccc1)NC(=O)c1cc2c3c(c1)c(CC)cn3CCS(=O)(=O)N2C | 3.1

Tested on: not listed separately
Assay: Lipophilicity, log D at pH 7.4
Conditions: buffer

Row | Compound | logD
33 | CCn1cc2c3c(cc(C(=O)N[C@@H](Cc4ccccc4)[C@H](O)CNC4CC4)cc31)N(C)S(=O)(=O)CC2 | 1.79
34 | CCn1cc2c3c(cc(C(=O)N[C@@H](Cc4ccccc4)[C@H](O)CNC4CCOCC4)cc31)N(C)S(=O)(=O)CC2 | 0.9
35 | CCc1cn2c3c(cc(C(=O)N[C@@H](Cc4ccccc4)[C@H](O)CNCCC(F)(F)F)cc13)N(C)S(=O)(=O)CC2 | 2.8
36 | CCc1cn2c3c(cc(C(=O)N[C@@H](Cc4ccccc4)[C@H](O)CNC4CCOCC4)cc13)N(C)S(=O)(=O)CC2 | 1.31

From ChEMBL document CHEMBL1158411, “Second generation of BACE-1 inhibitors part 3: Towards non hydroxyethylamine transition state mimetics” (Bioorg Med Chem Lett, 2009)
